Measurements reported in PubChem BioAssay AID328 (DTP/NCI, 2004).
Where “and” joins values, the source holds several entries; their conditions need not be identical. Equal entries are not always repeated. Inconclusive results and toxic doses are left out.

System: BDF1 mice, P388 leukemia ip, median survival T/C
Experiment: NCI In Vivo Anticancer Drug Screen. Data for tumor model P388 Leukemia (intraperitoneal) in B6D2F1 (BDF1) mice
Settings: endpoint: median survival time, higher = longer survival
Summary of the method: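 Each value expresses how treatment altered survival: treated-mouse outcome over vehicle-mouse outcome, both groups bearing the transplanted tumour.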

[1] = dose: 1.0 mg/kg/injection, schedule: Q01DX009 (ip), vehicle: saline

SMILES: CC1CN(Cc2ccccc2O)CC(C)N1 (centres undefined)
- T/C (dose: 6.25 mg/kg/injection, schedule: Q04DX003 (ip), vehicle: water): 103 % of control
- T/C (dose: 12.5 mg/kg/injection, schedule: Q04DX003 (ip), vehicle: water): 103 % of control
- T/C (dose: 25.0 mg/kg/injection, schedule: Q04DX003 (ip), vehicle: water): 103 % of control
- T/C (dose: 50.0 mg/kg/injection, schedule: Q04DX003 (ip), vehicle: water): 109 % of control
- T/C (dose: 100.0 mg/kg/injection, schedule: Q04DX003 (ip), vehicle: water): 97 % of control

SMILES: CC(=O)OC(C)(C)/C=C/C(=O)[C@](C)(O)[C@H]1[C@H](O)C[C@@]2(C)[C@@H]3CC=C4[C@@H](C=C(O)C(=O)C4(C)C)[C@]3(C)C(=O)C[C@]12C
- T/C [1]: 100 % of control
- T/C (dose: 2.0 mg/kg/injection, schedule: Q01DX009 (ip), vehicle: saline): 110 % of control

SMILES: O=C1CC2OCC=C3CN4CCC56c7ccccc7N1C5C2C3CC46 (centres undefined) (tested in a mixture with another compound)
- T/C (dose: 0.5 mg/kg/injection, schedule: Q04DX003 (ip), vehicle: saline + alcohol): 95 % of control
- T/C (dose: 1.0 mg/kg/injection, schedule: Q04DX003 (ip), vehicle: saline + alcohol): 110 % of control

SMILES: CCOC(=O)C(CNc1ccccc1)C(=O)OCC
- T/C (dose: 25.0 mg/kg/injection, schedule: Q01DX009 (ip), vehicle: saline with Tween-80): 95 % of control
- T/C (dose: 50.0 mg/kg/injection, schedule: Q01DX009 (ip), vehicle: saline with Tween-80): 95 % of control
- T/C (dose: 100.0 mg/kg/injection, schedule: Q01DX009 (ip), vehicle: saline with Tween-80): 95 % of control and 100 % of control
- T/C (dose: 200.0 mg/kg/injection, schedule: Q01DX009 (ip), vehicle: saline with Tween-80): 100 % of control
- T/C (dose: 400.0 mg/kg/injection, schedule: Q01DX009 (ip), vehicle: saline with Tween-80): 108 % of control and 109 % of control

SMILES: [N-]=[N+]=NCC(=O)NCc1cnccn1
- T/C (dose: 12.5 mg/kg/injection, schedule: Q01DX009 (ip), vehicle: saline): 116 % of control
- T/C (dose: 25.0 mg/kg/injection, schedule: Q01DX009 (ip), vehicle: saline): 116 % of control
- T/C (dose: 100.0 mg/kg/injection, schedule: Q01DX009 (ip), vehicle: saline): 106 % of control
- T/C (dose: 100.0 mg/kg/injection, schedule: Q04DX003 (ip), vehicle: saline): 109 % of control
- T/C (dose: 200.0 mg/kg/injection, schedule: Q01DX009 (ip), vehicle: saline): 116 % of control
- T/C (dose: 200.0 mg/kg/injection, schedule: Q04DX003 (ip), vehicle: saline): 108 % of control
- T/C (dose: 400.0 mg/kg/injection, schedule: Q01DX009 (ip), vehicle: saline): 119 % of control
- T/C (dose: 400.0 mg/kg/injection, schedule: Q04DX003 (ip), vehicle: saline): 109 % of control

SMILES: CCCCC/C(C)=N\Nc1ccccn1
- T/C (dose: 12.5 mg/kg/injection, schedule: Q01DX009 (ip), vehicle: Klucel (hydroxypropylcellulose) (HPC)): 100 % of control
- T/C (dose: 25.0 mg/kg/injection, schedule: Q01DX009 (ip), vehicle: Klucel (hydroxypropylcellulose) (HPC)): 113 % of control
- T/C (dose: 50.0 mg/kg/injection, schedule: Q01DX009 (ip), vehicle: Klucel (hydroxypropylcellulose) (HPC)): 104 % of control and 113 % of control
- T/C (dose: 100.0 mg/kg/injection, schedule: Q01DX009 (ip), vehicle: Klucel (hydroxypropylcellulose) (HPC)): 118 % of control

SMILES: CC[C@]12CN3CCc4c([nH]c5ccccc45)[C@@](C(=O)OC)(c4cc5c(cc4OC)N(C)[C@H]4[C@@](O)(C(=O)OC)[C@H](OC(C)=O)[C@]6(CC)C=CCN7CC[C@]54[C@@H]76)CC(C3)[C@H]1O2 (some centres undefined)
- T/C (dose: 0.5 mg/kg/injection, schedule: Q01DX009 (ip), vehicle: saline): 155 % of control
- T/C [1]: 160 % of control
- T/C (dose: 1.5 mg/kg/injection, schedule: Q01DX009 (ip), vehicle: Klucel (hydroxypropylcellulose) (HPC)): 124 % of control
- T/C (dose: 3.0 mg/kg/injection, schedule: Q01DX009 (ip), vehicle: Klucel (hydroxypropylcellulose) (HPC)): 162 % of control
- T/C (dose: 3.0 mg/kg/injection, schedule: Q01DX009 (ip), vehicle: saline): 180 % of control
- T/C (dose: 3.9 mg/kg/injection, schedule: Q01DX009 (ip), vehicle: saline): 160 % of control
- T/C (dose: 6.0 mg/kg/injection, schedule: Q01DX009 (ip), vehicle: Klucel (hydroxypropylcellulose) (HPC)): 170 % of control and 171 % of control
- T/C (dose: 6.0 mg/kg/injection, schedule: Q01DX009 (ip), vehicle: saline with Tween-80): 225 % of control
- T/C (dose: 6.0 mg/kg/injection, schedule: Q01DX009 (ip), vehicle: saline): 234 % of control and 200 % of control
- T/C (dose: 9.0 mg/kg/injection, schedule: Q01DX009 (ip), vehicle: saline with Tween-80): 95 % of control
- T/C (dose: 9.0 mg/kg/injection, schedule: Q01DX009 (ip), vehicle: saline): 252 % of control
- T/C (dose: 12.0 mg/kg/injection, schedule: Q01DX009 (ip), vehicle: Klucel (hydroxypropylcellulose) (HPC)): 186 % of control and 216 % of control
- T/C (dose: 12.0 mg/kg/injection, schedule: Q01DX009 (ip), vehicle: saline): 240 % of control
- T/C (dose: 5.0 micrograms/kg/injection, schedule: Q01DX009 (ip), vehicle: saline): 104 % of control
- T/C (dose: 10.0 micrograms/kg/injection, schedule: Q01DX009 (ip), vehicle: saline): 109 % of control
- T/C (dose: 30.0 micrograms/kg/injection, schedule: Q01DX009 (ip), vehicle: saline): 109 % of control
- T/C (dose: 60.0 micrograms/kg/injection, schedule: Q01DX009 (ip), vehicle: saline): 100 % of control
- T/C (dose: 120.0 micrograms/kg/injection, schedule: Q01DX009 (ip), vehicle: saline): 95 % of control
